In US20070112077A1, “Des-C,D analogs of 1alpha,25-dihydroxy-19-norvitamin D3” (Wisconsin Alumni Research Foundation, priority 2005, published 2007):

Experiments:
[1] = test system: Human promyelocytic leukemia (HL60) cells; assay: HL-60 differentiation (nitro blue tetrazolium reduction); format: cell-based; conditions: FIG. 2
Experimental: FIG. 2 is a graph comparing the percent HL-60 cell differentiation as a function of the concentration of Des-C,D with that of 1,25(OH)2D3.
The study drugs were dissolved in ethanol and the concentrations determined using UV spectrophotometry. Serial dilutions were prepared so that a range of drug concentrations was tested without changing the final concentration of ethanol (≦0.2%) present in the cell cultures.
Human promyelocytic leukemia (HL60) cells were grown in RPMI-1640 medium containing 10% fetal bovine serum. The cells were incubated at 37° C. in the presence of 5% CO2.
HL60 cells were plated at 1.2 x 10^5cells/mL. Eighteen hours after plating, cells in duplicate were treated with drug. Four days later, the cells were harvested and a nitro blue tetrazolium reduction assay was performed (Collins et al., 1979; J. Exp. Med. 149:969-974). The percentage of differentiated cells was determined by counting a total of 200 cells and recording the number that contain intracellular black-blue formazan deposits. Verification of differentiation to monocytic cells was determined by measuring phagocytic activity.

[2] = test system: 24-hydroxylase (24Ohase) gene promoter in ROS 17/2.8 (bone) cells; assay: In vitro transcription assay (24-hydroxylase gene promoter, luciferase reporter); format: cell-based; conditions: ROS 17/2.8 cells, FIG. 3
Experimental: FIG. 3 is a graph comparing the in vitro transcription activity of Des-C, D with that of 1,25(OH)2D3.
Transcription activity was measured in ROS 17/2.8 (bone) cells that were stably transfected with a 24-hydroxylase (240hase) gene promoter upstream of a luciferase reporter gene (Arbour et al., 1998). Cells were given a range of doses. Sixteen hours after dosing the cells were harvested and luciferase activities were measured using a luminometer. RLU=relative luciferase units.

[3] = target: T1, full-length recombinant rat vitamin D receptor (Rattus norvegicus, UniProt P13053); assay: Vitamin D receptor binding, competition with [3H]-1,25-(OH)2-D3; conditions: competition with [3H]-1,25-(OH)2-D3, FIG. 1
T1 construct: Full-length recombinant rat receptor was expressed in E. coli; histidine tag (C); made in house; host or cells: E. coli BL21 (DE3) Codon Plus RIL
T1 sequence (P13053 1-423): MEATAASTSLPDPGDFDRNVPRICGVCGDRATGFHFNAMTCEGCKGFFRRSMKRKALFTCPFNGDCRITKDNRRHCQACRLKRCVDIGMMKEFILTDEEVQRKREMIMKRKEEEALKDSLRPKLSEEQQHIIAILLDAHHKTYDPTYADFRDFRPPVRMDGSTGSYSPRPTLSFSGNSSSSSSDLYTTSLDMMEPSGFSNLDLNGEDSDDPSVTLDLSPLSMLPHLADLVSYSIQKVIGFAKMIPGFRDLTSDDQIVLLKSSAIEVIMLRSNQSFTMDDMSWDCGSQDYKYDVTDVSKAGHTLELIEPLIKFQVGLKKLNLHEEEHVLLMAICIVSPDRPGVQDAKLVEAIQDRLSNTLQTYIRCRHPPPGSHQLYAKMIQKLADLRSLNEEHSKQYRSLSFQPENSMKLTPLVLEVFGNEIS
Text: FIG. 1 is a graph comparing the relative activity of Des-C,D and 1,25(OH)2D3 to compete for binding with [^3H]-1 ,25-(OH)2-D3 to the full-length recombinant rat vitamin D receptor.
Full-length recombinant rat receptor was expressed in E. coli BL21 (DE3) Codon Plus RIL cells and purified to homogeneity using two different column chromatography systems. The first system was a nickel affinity resin that utilizes the C-terminal histidine tag on this protein. The protein that eluted from this resin was further purified using ion exchange chromatography (S-Sepharose Fast Flow). Aliquots of the purified protein were quick frozen in liquid nitrogen and stored at −80° C. until use. For use in binding assays, the protein was diluted in TEDK50 (50 mM Tris, 1.5 mM EDTA, pH 7.4, 5 mM DTT, 150 mM KCI) with 0.1% Chaps detergent. […]
Unlabeled ligands were dissolved in ethanol and the concentrations were determined using UV spectrophotometry (1,25(OH)2D3: molar extinction coefficient=18,200 and λmax=265 nm). […]
Radiolabeled and unlabeled ligands were added to 100 mcl of the diluted protein at a final ethanol concentration of ≦10%, mixed and incubated overnight on ice to reach binding equilibrium. […] Total binding was determined from the tubes containing only radiolabeled ligand.

Sprague-Dawley rats = assay: Bone calcium mobilization (serum calcium); format: in vivo, rat; conditions: even at the very high dose; four consecutive ip doses; FIG. 4
Text: FIG. 4 is a bar graph comparing the bone calcium mobilization activity of Des-C,D with that of 1,25(OH)2D3.
Male, weanling Sprague-Dawley rats were placed on Diet 11 (Suda et al. J. Nutr. 100:1049, 1970) (0.47% Ca) diet +vitamins AEK for one week followed by Diet 11 (0.02% Ca) +AEK for 3 weeks. The rats were then switched to a diet containing 0.47% Ca for one week followed by two weeks on a diet containing 0.02% Ca. Dose administration began during the last week on 0.02% calcium diet. Four consecutive ip doses were given approximately 24 hours apart. Twenty-four hours after the last dose, blood was collected from the severed neck and the concentration of serum calcium was determined as a measure of bone calcium mobilization. The first 10 cm of the intestine was also collected for intestinal calcium transport analysis using the everted gut sac method. Antagonism was tested by administering a combination of 1,25(OH)2D3 and the compound to the animal simultaneously.

For `C=C1[C@H](O)CC(=C/C=C/CCC[C@@H](C)CCCC(C)(C)O)C[C@H]1O` [Des-C,D], which “activity in inducing differentiation of HL-60 cells compared with 1,25-(OH)2D3” value [1] is on record?
Its value is “does not show as much activity as 1,25-(OH)2D3”.

And the “activity in causing transcription compared with 1,25-(OH)2D3” value [2]?
The value was “does not show as much activity in causing transcription as 1,25-(OH)2D3”.

And the “binding to the vitamin D receptor compared with 1,25-(OH)2D3” value [3]?
Its value is “does not bind to the vitamin D receptor as strongly as the native hormone 1,25-(OH)2D3”.

What about the “bone calcium mobilizing activity” value (Sprague-Dawley rats) of the same compound?
Its value is “no measureable bone calcium mobilizing activity”.
